This passage reports GI50 results from patent US9943506B2, “BCL6 inhibitors as anticancer agents” (Cornell University, priority 2013, dated 2018).

Read-outs that look alike come from different tables or passages of the source. Where only a bound is given, the exact number is not on record here.

Common to all, as to assay type: cell-based
The subject of assay [1] is Toledo DLBCL cells. Nature of the assay: Growth inhibition of DLBCL cells, Toledo. The settings on record: Homo sapiens. The method, then: (§1) 50,000 cells per well were treated for 48 hours with different concentrations of the compounds in 96 well plates, using DMSO as a control. Then, viability was determined with Cell Titer Blue™ (Promega) and growth inhibition was calculated as the percentage of viable cells with respect to cells treated with DMSO alone. GI50 values were determined by dose-response curves.
(§2) 293T cells were grown in Dulbecco's modified Eagles medium supplemented with 10% fetal bovine serum (FBS) (Gemini Bio-Products, Woodland, Calif.) and 1% penicillin-streptomycin. DLBCL cell lines OCI-Ly1, OCI-Ly1-B50, OCI-Ly7, OCI-Ly10 and OCI-Ly19 were grown in 80% Iscove's medium, 20% FBS and penicillin G/streptomycin. DLBCL cell lines Toledo, Farage, SU-DHL4, DOHH-2, SC-1, RCK8, TMD8, HBL-1, Ly3, Karpas 422 and SU-DHL6 were cultured in 90% RPMI medium, 10% FBS, 2 mM glutamine, 10 mM Hepes and penicillin G/streptomycin. All cell lines were cultured at 37° C. in a humidified atmosphere of 5% CO2.

Assay [2] concerns SUDHL6 DLBCL cells. Description: Growth inhibition of DLBCL cells, SUDHL6. The settings on record: Homo sapiens, SU-DHL-6. The method, then:
as §1, §2

Assay [3] deals with Ly7 DLBCL cells. Nature of the assay: Growth inhibition of DLBCL cells, Ly7. The method, then:
as §1, §2

Assay [4] has as its system Ly1B50 DLBCL cells. Description: Growth inhibition of DLBCL cells, Ly1B50. The settings on record: Table 2; BCL-6 independent; 48 hours. The method, then:
as §1, §2

The test system of assay [5] is Ly3 DLBCL cells. Description: Growth inhibition of DLBCL cells, Ly3. The conditions noted are these: Table 2; BCL-6 dependent; 48 hours. The method, then:
as §1, §2

Assay [6] concerns Karpas 422 DLBCL cells. Nature of the assay: Growth inhibition of DLBCL cells, Karpas 422. The settings on record: Homo sapiens, Table 2, BCL-6 independent, 48 hours, read-out: GI50 Karpas 422. The method, then:
as §1, §2

The subject of assay [7] is Ly10 DLBCL cells. Description: Growth inhibition of DLBCL cells, Ly10. The conditions noted are these: Table 2, BCL-6 dependent, 48 hours. How it is done:
as §1, §2

Setting [8] is: Table 10, BCL6 dependent, read-out: GI50 SUDHL6.
Where [9] appears, read: 48 h, Table 2, BCL-6 independent.
Setting [10] is: Table 2, BCL-6 dependent, 48 hours, read-out: GI50 SUDH6.
The mark [11] stands for this setting: Table 2, BCL-6 independent, 48 hours.
[12] abbreviates: Table 2, BCL-6 dependent, 48 hours.

Regarding `Cc1ccc(COC(=O)Cn2c(=O)oc3cc(Cl)ccc32)cc1` [Compound 333], the 50% growth inhibitory concentration (GI50) in assay [1] (Table 10, BCL6 independent) is above 125 µM; in assay [2] (setting [8]), above 125 µM; in assay [3] (Table 10, BCL6 dependent), above 125 µM.
As for `Cc1cccc(COC(=O)Cn2c(=O)oc3cc(Cl)ccc32)c1` [Compound 334], the GI50 in assay [1] (Table 10, BCL6 independent) is above 125 µM; in assay [2] (setting [8]), above 125 µM; in assay [3] (Table 10, BCL6 dependent), above 125 µM.
`O=C(Cn1c(=O)oc2cc(Cl)ccc21)OCc1ccc(C(F)(F)F)cc1` [Compound 339]: the GI50 is above 125 µM in assay [1] (Table 10, BCL6 independent); above 125 µM in assay [2] (setting [8]); above 125 µM in assay [3] (Table 10, BCL6 dependent).
For the compound `C[C@@H](OC(=O)Cn1c(=O)oc2cc(Cl)ccc21)c1ccccc1` [Compound 341], the GI50 in assay [1] (Table 10, BCL6 independent) was above 125 µM; in assay [2] (setting [8]), above 125 µM; in assay [3] (Table 10, BCL6 dependent), above 125 µM.
Turning to `COc1ccc2[nH]c(SCc3ccccc3)nc2c1` [Compound 1059], the GI50 in assay [1] (Table 13, BCL6 independent) was above 125 µM; in assay [2] (Table 13, BCL6 dependent, read-out: GI50 SUDHL6), above 125 µM; in assay [3] (Table 13, BCL6 dependent), above 125 µM.
With `O=C(O)CCN1C(=O)/C(=C2/C(=O)Nc3c(Cl)cc(Cl)cc32)SC1=S` [Compound 1093, (Z)-3-(5-(5,7-Dichloro-2-oxoindolin-3-ylidene)-4-oxo-2-thioxothiazolidin-3-yl)propanoic acid], the GI50 in assay [4] was above 40 µM; in assay [1] (setting [9]), above 40 µM; in assay [5], above 40 µM; in assay [2] (setting [10]) it was above 40 µM; in assay [3] (48 h, Table 2, BCL-6 dependent) it was 30 ± 9 µM; in assay [6] it was above 40 µM. In addition, the GI50 in assay [7] came to 21 ± 12 µM.
As for `Cc1cc(Cl)cc2c1NC(=O)/C2=C1\SC(=S)N(CCC(=O)O)C1=O` [Compound 1095, (Z)-3-(5-(5-Chloro-7-methyl-2-oxoindolin-3-ylidene)-4-oxo-2-thioxothiazolidin-3-yl)propanoic acid], the GI50 in assay [4] was above 40 µM; in assay [1] (setting [9]), above 40 µM; in assay [5], above 40 µM; in assay [2] (setting [10]) it was above 40 µM; in assay [3] (48 h, Table 2, BCL-6 dependent) it was above 40 µM; in assay [6], above 40 µM. This compound also showed a GI50 in assay [7] above 40 µM.
On to `Cc1ccc2c(c1)/C(=C1/SC(=S)N(CCC(=O)O)C1=O)C(=O)N2` [Compound 1097, (Z)-3-(5-(5-Methyl-2-oxoindolin-3-ylidene)-4-oxo-2-thioxothiazolidin-3-yl)propanoic acid], for which the GI50 is above 40 µM in assay [4]; above 40 µM in assay [1] (setting [9]); above 40 µM in assay [5]; above 40 µM in assay [2] (setting [10]); above 40 µM in assay [3] (48 h, Table 2, BCL-6 dependent); above 40 µM in assay [6]. The same compound gave a GI50 in assay [7] of 18 ± 8 µM.
Regarding `COc1cc(Br)cc2c1NC(=O)/C2=C1\SC(=S)N(CCC(=O)O)C1=O` [Compound 1113, (Z)-3-(5-(5-Bromo-7-methoxy-2-oxoindolin-3-ylidene)-4-oxo-2-thioxothiazolidin-3-yl)propanoic acid], the GI50 in assay [4] was above 40 µM; in assay [1] (setting [9]), above 40 µM; in assay [5], above 40 µM; in assay [2] (setting [10]), above 40 µM; in assay [3] (48 h, Table 2, BCL-6 dependent) it was 12 ± 7 µM; in assay [6] it was above 40 µM. The same compound returned a GI50 in assay [7] above 40 µM.
For the compound `O=C(O)CCN1C(=O)/C(=C2/C(=O)Nc3ccc(F)cc32)SC1=S` [Compound 1115, (Z)-3-(5-(5-Fluoro-2-oxoindolin-3-ylidene)-4-oxo-2-thioxothiazolidin-3-yl)propanoic acid], the 50% growth inhibitory concentration (GI50) is above 40 µM in assay [4]; above 40 µM in assay [1] (setting [9]); 22 ± 9 µM in assay [5]; 26 ± 7 µM in assay [2] (setting [10]); 24 ± 6 µM in assay [3] (48 h, Table 2, BCL-6 dependent); above 40 µM in assay [6]. The same compound displayed a GI50 in assay [7] of 34 ± 3 µM.
As for `O=C(O)CCN1C(=O)/C(=C2/C(=O)Nc3c(F)cccc32)SC1=S` [Compound 1117, (Z)-3-(5-(7-Fluoro-2-oxoindolin-3-ylidene)-4-oxo-2-thioxothiazolidin-3-yl)propanoic acid], the GI50 in assay [4] is above 40 µM; in assay [1] (setting [9]), above 40 µM; in assay [5] it was 21 ± 4 µM; in assay [2] (setting [10]), 25 ± 4 µM; in assay [3] (48 h, Table 2, BCL-6 dependent), 36 ± 1 µM; in assay [6], above 40 µM. Also, in assay [7], the GI50 was above 40 µM.
Consider `O=C(O)CCN1C(=O)/C(=C2/C(=O)Nc3ccc(Br)cc32)SC1=S` [Compound 1165, (Z)-3-(5-(5-Bromo-2-oxoindolin-3-ylidene)-4-oxo-2-thioxothiazolidin-3-yl)propanoic acid], for which the GI50 is above 40 µM in assay [4]; above 40 µM in assay [1] (setting [9]); 17 ± 6 µM in assay [5]; above 40 µM in assay [2] (setting [10]); above 40 µM in assay [3] (48 h, Table 2, BCL-6 dependent); above 40 µM in assay [6]. In assay [7], this compound had a GI50 of 25 ± 9 µM.
With `O=C(O)CCN1C(=O)/C(=C2/C(=O)Nc3c(Cl)cccc32)SC1=S` [Compound 1167, (Z)-3-(5-(7-Chloro-2-oxoindolin-3-ylidene)-4-oxo-2-thioxothiazolidin-3-yl)propanoic acid], the GI50 in assay [4] is above 40 µM; in assay [1] (setting [9]), above 40 µM; in assay [5], above 40 µM; in assay [2] (setting [10]), 29 ± 1 µM; in assay [3] (48 h, Table 2, BCL-6 dependent) it was 22 ± 1 µM; in assay [6], above 40 µM. Moreover, in assay [7], the GI50 is 24 ± 2 µM.
On to `O=C(O)CCN1C(=O)/C(=C2/C(=O)Nc3ccc([N+](=O)[O-])cc32)SC1=S` [Compound 1169, (Z)-3-(5-(5-Nitro-2-oxoindolin-3-ylidene)-4-oxo-2-thioxothiazolidin-3-yl)propanoic acid], for which the GI50 was above 40 µM in assay [4]; above 40 µM in assay [1] (setting [9]); 29 ± 5 µM in assay [5]; 30 ± 3 µM in assay [2] (setting [10]); 28 ± 7 µM in assay [3] (48 h, Table 2, BCL-6 dependent); 27 ± 8 µM in assay [6]. The compound also displayed a GI50 in assay [7] of 20 ± 10 µM.
As for `O=C(O)CCN1C(=O)/C(=C2/C(=O)Nc3ccccc32)SC1=S` [Compound 2001, (Z)-3-(4-Oxo-5-(2-oxoindolin-3-ylidene)-2-thioxothiazolidin-3-yl)propanoic acid], the GI50 in assay [4] is above 40 µM; in assay [1] (setting [9]) it was above 40 µM; in assay [5] it was above 40 µM; in assay [2] (setting [10]) it was above 40 µM; in assay [3] (48 h, Table 2, BCL-6 dependent), above 40 µM; in assay [6], above 40 µM. In assay [7], this compound came in with a GI50 above 40 µM.
Regarding `CCOC(=O)CCN1C(=O)/C(=C2/C(=O)Nc3ccc(Cl)cc32)SC1=S` [Compound 2003, (Z)-Ethyl 3-(5-(5-chloro-2-oxoindolin-3-ylidene)-4-oxo-2-thioxothiazolidin-3-yl)propanoate], the GI50 is above 6 µM in assay [4]; above 6 µM in assay [1] (setting [9]); above 6 µM in assay [5]; above 6 µM in assay [2] (setting [10]); above 6 µM in assay [3] (48 h, Table 2, BCL-6 dependent); above 6 µM in assay [6]. For the same compound, the GI50 in assay [7] was above 6 µM.
Turning to `O=C(O)CCN1C(=O)/C(=C2/C(=O)Nc3ccc(I)cc32)SC1=S` [Compound 2005, (Z)-3-(5-(5-Iodo-2-oxoindolin-3-ylidene)-4-oxo-2-thioxothiazolidin-3-yl)propanoic acid], the GI50 in assay [4] is above 40 µM; in assay [1] (setting [9]), above 40 µM; in assay [5] it was above 40 µM; in assay [2] (setting [10]) it was 25 ± 6 µM; in assay [3] (48 h, Table 2, BCL-6 dependent), above 40 µM; in assay [6], above 40 µM. This compound also gave a GI50 in assay [7] of 21 ± 2 µM.
Turning to `O=C(O)CCN1C(=O)C(C2(O)C(=O)Nc3ccc(F)cc32)SC1=S` (stereo not shown) [Compound 2021], the GI50 in assay [4], in assay [1] (setting [11]), in assay [5], in assay [2] (setting [10]), in assay [3] (setting [12]) and in assay [6] was above 40 µM in each case. The GI50 in assay [7] was above 40 µM.
For `O=C(O)CCN1C(=O)SC(C2(O)C(=O)Nc3ccc(Cl)cc32)C1=O` (stereo not shown) [Compound 2023], the GI50 in assay [4] was above 40 µM; in assay [1] (setting [11]) it was above 40 µM; in assay [5], above 40 µM; in assay [2] (setting [10]), 21 ± 3 µM; in assay [3] (setting [12]), 21 ± 10 µM; in assay [6], above 40 µM. This compound also had a GI50 in assay [7] above 40 µM.
Consider `O=C(O)CCN1C(=O)C(C2(O)C(=O)Nc3ccc(Br)cc32)SC1=S` (stereo not shown) [Compound 2025], for which the GI50 was above 40 µM in assay [4]; above 40 µM in assay [1] (setting [11]); above 40 µM in assay [5]; 14 ± 2 µM in assay [2] (setting [10]); 13 ± 1 µM in assay [3] (setting [12]); 22 ± 7 µM in assay [6]. The compound further registered a GI50 in assay [7] of 15 ± 8 µM.
As to `O=C(O)CCN1C(=O)SC(C2(O)C(=O)Nc3ccc(I)cc32)C1=O` (stereo not shown) [Compound 2027], the GI50 is above 40 µM in assay [4]; above 40 µM in assay [1] (setting [11]); 14 ± 3 µM in assay [5]; 7 ± 1 µM in assay [2] (setting [10]); 8 ± 1 µM in assay [3] (setting [12]); above 40 µM in assay [6]. This compound also had a concentration for 50% growth inhibition (GI50) in assay [7] of 6 ± 2 µM.
